Columns and labels:
[1] = tested on: BMSC (primary human bone marrow mesenchymal stromal cells); assay: absolute EC50 for viability; higher = less sensitive
[2] = tested on: BMSC (primary human bone marrow mesenchymal stromal cells); assay: drug sensitivity score (DSS); higher = more sensitive

Compound	absolute EC50 for viability [1] [µM]	drug sensitivity score [2]
CC(C)n1cnc2c(NCCc3ccc(O)cc3)nc(-c3csc4ccccc34)nc21 [StemRegenin 1]	> 10	0.4
CC1=C2C[C@H]3[C@@H](CC[C@@H]4C[C@H](NS(C)(=O)=O)CC[C@@]43C)[C@@H]2CC[C@@]2(C1)O[C@@H]1C[C@H](C)CN[C@H]1[C@H]2C [Saridegib]	> 10	0
CN[C@@H](C)C(=O)N[C@H](C(=O)N1CCC[C@H]1c1nc(C(=O)c2ccc(F)cc2)cs1)C1CCCCC1 [NVP-LCL161]	> 25	0
Cc1cnc(NC(=O)Nc2cc(Br)c(C)cc2OC[C@@H]2CNCCO2)cn1 [Rabusertib]	> 1	0
COc1cc2nccc(Oc3ccc(NC(=O)C4(C(=O)Nc5ccc(F)cc5)CC4)cc3)c2cc1OC [Cabozantinib]	> 1	3.6
S=C(NCc1ccc2c(c1)OCO2)N1CCN(c2ncnc3c2oc2ccccc23)CC1 [Amuvatinib]	> 10	0
COC(=O)c1ccc2c(C(=Nc3ccc(N(C)C(=O)CN4CCN(C)CC4)cc3)c3ccccc3)c(O)[nH]c2c1 [Nintedanib]	2.56	9.7
O=C(c1cc(Cc2n[nH]c(=O)c3ccccc23)ccc1F)N1CCN(C(=O)C2CC2)CC1 [Olaparib]	> 10	2.1
CCCCc1nc2cc(/C=C/C(=O)NO)ccc2n1CCN(CC)CC [Pracinostat]	1.56	8.8
CNc1nc(-c2ccc3c(N)n[nH]c3c2)cc(N2C[C@@H](C(=O)NC3CCCCC3)CC[C@H]2C)n1	> 10	5.4
C[C@@H](Oc1cc(-c2cnn(C3CCNCC3)c2)cnc1N)c1c(Cl)ccc(F)c1Cl [Crizotinib]	> 1	0.2
O=C(O)c1ccc(-c2c[nH]c3ncc(-c4ccccc4)cc23)cc1C1CCCC1	> 10	0.7
COc1nc(N)nc2c1ncn2[C@@H]1O[C@H](CO)[C@@H](O)[C@@H]1O [Nelarabine]	> 10	0
CCc1nc(C(N)=O)c(Nc2ccc(N3CCC(N4CCN(C)CC4)CC3)c(OC)c2)nc1NC1CCOCC1 [Gilteritinib]	> 1	0.8
C[C@H]1CN(C2COC2)CCN1c1ccc(Nc2cc(-c3ccnc(N4CCn5c(cc6c5CC(C)(C)C6)C4=O)c3CO)cn(C)c2=O)nc1 [GDC-0853]	> 1	0
COC[C@H](NC(=O)c1cnc(C)s1)C(=O)N[C@@H](COC)C(=O)N[C@@H](Cc1ccccc1)C(=O)[C@@]1(C)CO1 [Oprozomib]	0.304	10
CON(C)C(=O)N1N=C(c2cc(F)ccc2F)S[C@@]1(CCCN)c1ccccc1 [Filanesib]	> 1	0
O=C1c2c(O)ccc(O)c2C(=O)c2c(NCCNCCO)ccc(NCCNCCO)c21 [Mitoxantrone]	0.185	8
O=C(O)c1ccc(O)c2ncccc12 [IOX-1]	> 100	0.6
COc1c(C)cnc(Cn2cnc3c(Cl)nc(N)nc32)c1C [BIIB021]	0.449	12
CN(C)C(=O)c1ccc(S(=O)(=O)c2ccc(NC(=O)C(C)(O)C(F)(F)F)c(Cl)c2)cc1 (stereo not given) [AZD7545]	> 10	0
CC1(C)CC[C@]2(NC(=O)C(C)(F)F)CC[C@]3(C)[C@H](C(=O)C=C4[C@@]5(C)C=C(C#N)C(=O)C(C)(C)[C@@H]5CC[C@]43C)[C@@H]2C1 [Omaveloxolone]	3.77	4.7
CC[C@@H]1[C@H](F)C(=O)N[C@@H]1COc1nccc2cc(C(N)=O)c(OC)cc12	> 10	0.3

Compound	absolute EC50 for viability [1] [µM]	drug sensitivity score [2]
O=C1Cc2cc(C(=O)NC3C[C@H]4CC[C@@H](C3)N4S(=O)(=O)CC3CCN(CCCC(F)(F)F)CC3)c(Cl)cc2N1 (stereo not given in full)	> 10	0
NC(=O)NO [Hydroxyurea]	> 1000	-2.9
Cc1noc2c1-c1ccccc1C(c1ccc(Cl)cc1)=N[C@H]2CC(N)=O [CPI-0610]	> 10	0
NS(=O)(=O)OC[C@@H]1C[C@@H](n2ccc3c(N[C@H]4CCc5ccccc54)ncnc32)C[C@@H]1O [Pevonedistat]	> 10	5.4
CC[C@@H](C(=O)[C@@H](C)[C@@H](O)[C@H](C)[C@@H]1O[C@@H]([C@@H](CC)C(=O)O)CC[C@@H]1C)[C@H]1O[C@]2(C=C[C@@H](O)[C@]3(CC[C@@](C)([C@H]4CC[C@](O)(CC)[C@H](C)O4)O3)O2)[C@H](C)C[C@@H]1C [Salinomycin]	1.53	16.8
CCc1cncnc1N1CCN(Cc2nc3ccc(C(F)(F)F)cc3[nH]2)CC1	> 10	1
COc1cc(N2CCN(C)CC2)ccc1Nc1nccc(-c2cn(C)c3cnccc23)n1 [AZ191]	2.71	8.1
CC(=O)Nc1ccc(C(=O)Nc2ccccc2N)cc1 [Tacedinaline]	> 1	0
C=CC(=O)N1CC/C(=C\c2ccc(F)c([N+](=O)[O-])c2)C(=O)/C(=C/c2ccc(F)c([N+](=O)[O-])c2)C1 [VLX1570]	1.4	9.6
Nc1cc(COc2c(Cl)cc(C[C@H](N)C(=O)O)cc2Cl)c2oc(-c3ccccc3)nc2c1 [JPH203]	> 5	0
COc1cc(Nc2c(C#N)cnc3cc(OCCCN4CCN(C)CC4)c(OC)cc23)c(Cl)cc1Cl [Bosutinib]	1.69	8.8
CC(O)c1cc(C(=O)N[C@@H](C)Cn2ccc(-c3ccc(C#N)c(Cl)c3)n2)n[nH]1 (stereo not given in full) [ODM-201]	> 2.5	0
CO[C@@H](C(=O)N1Cc2[nH]nc(NC(=O)c3ccc(N4CCN(C)CC4)cc3)c2C1)c1ccccc1 [Danusertib]	> 10	3.6
CNc1nc(Nc2cn(C(C)(C)C#N)nc2C)ncc1C(F)(F)F [GNE-0877]	> 1	0
COc1cc2c(N3CCN(C(=O)Nc4ccc(OC(C)C)cc4)CC3)ncnc2cc1OCCCN1CCCCC1 [Tandutinib]	> 1	2.7
CC(C)Oc1ccc(-c2nn([C@@H](C)c3oc4ccc(F)cc4c(=O)c3-c3cccc(F)c3)c3ncnc(N)c23)cc1F [TGR-1202]	> 2.5	0
CCC1(c2ccc(N)cc2)CCC(=O)NC1=O (stereo not given) [Aminoglutethimide]	> 10	0
CN1CCN(c2ccc3nc(-c4c(N)c5c(F)cccc5[nH]c4=O)[nH]c3c2)CC1 [Dovitinib]	> 10	0.9
Cn1cc(-c2cnn3c(N)c(Br)c([C@@H]4CCCNC4)nc23)cn1 [MK-8776]	> 2.5	1
COc1cc2c(cc1-c1c(C)noc1C)ncc1[nH]c(=O)n([C@H](C)c3ccccn3)c12 [I-BET151]	> 10	3.5
CCOc1ccn(-c2ccc(F)cc2)c(=O)c1C(=O)Nc1ccc(Oc2ccnc(N)c2Cl)c(F)c1	> 2.5	0
O=C(O)c1ccc(CN2CCC(CN[C@@H]3C[C@H]3c3ccccc3)CC2)cc1	> 100	0

From the supplement of paper PMC9103864
